Experimental data published in patent US12115229B2, “Nanosystems for controlled transport of active molecules for diagnostic, prognostic and therapeutic purposes” (FIDIA FARMACEUTICI S.P.A., priority 2015, dated 2024).

Test system: tumour cell line 4T1 (breast cancer)
Experiment: In vitro MTT cytotoxicity assay, 4T1
Type: cell-based
Protocol: The cytotoxic activity of Doxo-Hyalusphere was tested on tumour cell lines 4T1 (breast cancer) and A549 (lung cancer), using the in vitro MTT assay.
For the purpose of the test, cell line 4T1 was cultured in RPMI medium (Gibco) and A549 in DMEM (Gibco). 10% FBS (foetal bovine serum, Gibco), 1% L-glutamine (Gibco) and 1% penicillin/streptomycin (Gibco) were added to both culture media at the temperature of 37° C. in the presence of 5% CO2.
The cells were plated in 24-well microplates (Nunc) (50000 cells per well in 500 μl of medium). After 12 hours, 100 μl of culture medium containing the various conditions studied was added to each well: • 1) Nanoparticles with PEG (PEG-NP); • 2) Nanoparticles with rHyal_Sk (Hyal-NP); • 3) Doxorubicin in solution (Free DOX); • 4) Doxorubicin bonded to nanoparticles (DOX-NP) • 5) Doxo-HyaluSpheres (DOX-Hyal-NP),
The nanoparticle concentrations were established at 40000 per cell, and the plates were incubated for 24 and 96 hours. […]
Metabolic activity was evaluated after 30 minutes by reading the optical density (OD) with an ELISA Reader (Bio-Rad) spectrophotometer at the wavelength of 570 nm. […] The fraction of viable cells was determined on the basis of the ratio between the mean optical density of the treated samples and that of the untreated control sample.

COc1cccc2c1C(=O)c1c(O)c3c(c(O)c1C2=O)C[C@@](O)(C(=O)CO)C[C@@H]3O[C@H]1C[C@H](N)[C@H](O)[C@H](C)O1 [Free-DOX, Doxorubicin]
tumour cell survival compared with the doxorubicin nanosystems (free doxorubicin 0.75 μg/mL): Quantitatively identical results
cell death (free drug equivalent to 3 nM (1.6 ng/mL), 24 and 96 hours): did not lead to cell death
